From PubChem BioAssay (NCI) come the findings set out here.

Among the test systems are COLO 205 colon; MALME-3M melanoma; UACC-62 melanoma; MOLT-4 leukemia; RPMI-8226 leukemia; UO-31 renal; CCRF-CEM leukemia; NCI/ADR-RES ovarian; HCC-2998 colon; IGROV1 ovarian; HOP-92 NSCLC.
Holding throughout (experiment): growth of human tumour cells (NCI), 48 h

Molecules are shown by their SMILES.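 Protocol summary: plate cells (96-well), add compound at 5 concentrations, incubate 48 h, interpolate endpoints linearly. At the TGI there is no net growth.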

As to `Cc1ccccc1NC(=O)CSc1nnc(-c2ccc(N=Cc3ccc(Cl)cc3)cc2)o1`, the TGI in the experiment with COLO 205 colon, in the experiment with MALME-3M melanoma, in the experiment on UACC-62 melanoma, with MOLT-4 leukemia, in the experiment with RPMI-8226 leukemia and in the experiment on UO-31 renal was above 100 µM each time. Besides, in the experiment on CCRF-CEM leukemia, the TGI is above 100 µM.
For the compound `C=C(C)C1CC(=O)C(C)=C(O)C1` (centres undefined), the TGI in the experiment on NCI/ADR-RES ovarian, with COLO 205 colon, in the experiment on MALME-3M melanoma, with HCC-2998 colon, in the experiment with UACC-62 melanoma and in the experiment on MOLT-4 leukemia was above 100 µM in each case. Also, the TGI in the experiment on UO-31 renal, in the experiment on CCRF-CEM leukemia and in the experiment on IGROV1 ovarian was above 100 µM each time.
With `Cc1nc(NC(C)(CO)CO)nc(N/N=C/c2ccc(Cl)cc2)c1C(=O)Nc1ccc(Cl)cc1`, the TGI in the experiment on NCI/ADR-RES ovarian, in the experiment on COLO 205 colon, in the experiment with MALME-3M melanoma, in the experiment on HCC-2998 colon, with UACC-62 melanoma and with MOLT-4 leukemia was above 100 µM in each case. Moreover, the TGI in the experiment on RPMI-8226 leukemia, in the experiment with UO-31 renal, in the experiment with CCRF-CEM leukemia and in the experiment on IGROV1 ovarian was above 100 µM each time.
Regarding `CC(C)(C)C(=O)Nc1c(C=O)ccc2[nH]cnc12`, the TGI was above 100 µM in the experiment on NCI/ADR-RES ovarian; above 100 µM in the experiment on HOP-92 NSCLC; above 100 µM in the experiment with COLO 205 colon; above 100 µM in the experiment with HCC-2998 colon; 73.7 µM in the experiment on MOLT-4 leukemia; above 100 µM in the experiment on RPMI-8226 leukemia. Also, the TGI in the experiment with UO-31 renal, with CCRF-CEM leukemia and in the experiment on IGROV1 ovarian was above 100 µM throughout.
With `CCC1(O)CC(CCN(Cc2ccccc2)C(=O)OCc2ccccc2)C(OCc2ccccc2)C1O` (centres undefined), the TGI in the experiment on NCI/ADR-RES ovarian was found to be 25.7 µM; in the experiment on COLO 205 colon, 34.2 µM; in the experiment on HCC-2998 colon, 28.9 µM; in the experiment with UACC-62 melanoma, 28.3 µM; in the experiment on MOLT-4 leukemia it was 7.56 µM; with UO-31 renal, 33.7 µM. Further, the TGI is 81.7 µM in the experiment with CCRF-CEM leukemia and 37.4 µM with IGROV1 ovarian.
Take `O=c1c2cc(Br)cc(Br)c2[nH]c(=S)n1-c1ccc(N=Nc2ccc(O)c3cccnc23)cc1`: the TGI in the experiment on HOP-92 NSCLC was 41.6 µM; with COLO 205 colon, above 100 µM; in the experiment with MALME-3M melanoma, 43.2 µM; with MOLT-4 leukemia, above 100 µM; in the experiment with RPMI-8226 leukemia it was above 100 µM; with UO-31 renal it was above 100 µM. For the same compound, the TGI in the experiment on IGROV1 ovarian stood at 34.5 µM.
`Cc1cn(CCCCCCOC(=O)NC(CCCNC(N)=O)C(=O)O)c(=O)[nH]c1=O` (centres undefined): the TGI in the experiment with NCI/ADR-RES ovarian, in the experiment on HOP-92 NSCLC, in the experiment on COLO 205 colon, with HCC-2998 colon, in the experiment with UACC-62 melanoma and in the experiment with MOLT-4 leukemia was above 100 µM throughout. Further, the TGI in the experiment with RPMI-8226 leukemia, in the experiment on UO-31 renal, in the experiment with CCRF-CEM leukemia and with IGROV1 ovarian was above 100 µM in each case.
On to `Cc1cc(=O)[nH]c(NNC(C#N)c2cccc([N+](=O)[O-])c2)n1` (centres undefined), for which the TGI in the experiment on HOP-92 NSCLC, in the experiment on COLO 205 colon, in the experiment on MALME-3M melanoma, in the experiment with UACC-62 melanoma, in the experiment on MOLT-4 leukemia and with RPMI-8226 leukemia was above 100 µM each time. Moreover, the TGI in the experiment on UO-31 renal, in the experiment with CCRF-CEM leukemia and in the experiment with IGROV1 ovarian was above 100 µM in each case.
As for `Oc1ccc(C(O)C2CCCCN2)cc1O` (centres undefined), the TGI in the experiment with NCI/ADR-RES ovarian, in the experiment on HOP-92 NSCLC, with COLO 205 colon, in the experiment with MALME-3M melanoma, with UACC-62 melanoma and in the experiment on RPMI-8226 leukemia was above 100 µM throughout. The TGI in the experiment with UO-31 renal and with IGROV1 ovarian was above 100 µM throughout.
For `N#Cc1c(NC(=S)Nc2ccc(Cl)cc2)sc2c1CCN(N1CCc3c(sc(NC(=S)Nc4ccc(Cl)cc4)c3C#N)C1)C2`, the TGI in the experiment on NCI/ADR-RES ovarian is above 100 µM; with COLO 205 colon, 33.4 µM; in the experiment on MALME-3M melanoma, above 100 µM; in the experiment on HCC-2998 colon it was above 100 µM; with UACC-62 melanoma, 41.8 µM; with MOLT-4 leukemia it was above 100 µM. The TGI with RPMI-8226 leukemia was above 100 µM; with UO-31 renal, 59.9 µM; in the experiment with CCRF-CEM leukemia, above 100 µM; in the experiment with IGROV1 ovarian, 47.8 µM.
Regarding `CN(CCCCCl)P(=O)(OCc1ccc([N+](=O)[O-])o1)OCC1OC(n2ccc(N)nc2=O)C(O)C1O` (centres undefined), the TGI in the experiment with NCI/ADR-RES ovarian is above 100 µM; in the experiment with COLO 205 colon it was 2.69 µM; with MALME-3M melanoma, 8.36 µM; with HCC-2998 colon it was 12.6 µM; in the experiment with UACC-62 melanoma it was 40.6 µM; in the experiment with MOLT-4 leukemia, 11 µM. The values for the TGI in the experiment on RPMI-8226 leukemia, in the experiment with UO-31 renal and with IGROV1 ovarian were 6.07 µM, above 100 µM and 16.3 µM, respectively.
Consider `CCOC(=O)c1c(N)sc2c1C(C(=O)OCC)CCCC2` (centres undefined), for which the TGI in the experiment on HOP-92 NSCLC, in the experiment with COLO 205 colon, in the experiment with MALME-3M melanoma, in the experiment on HCC-2998 colon, in the experiment on UACC-62 melanoma and in the experiment with MOLT-4 leukemia was above 100 µM in each case. Moreover, the TGI in the experiment with RPMI-8226 leukemia, with UO-31 renal and in the experiment with IGROV1 ovarian was above 100 µM each time.
As for `FC1=C2C3CCC(C3)C2C1(F)F` (centres undefined), the TGI in the experiment with NCI/ADR-RES ovarian, with COLO 205 colon, with MALME-3M melanoma, in the experiment with HCC-2998 colon, in the experiment on UACC-62 melanoma and in the experiment on MOLT-4 leukemia was above 100 µM each time. Further, the TGI with RPMI-8226 leukemia, in the experiment on UO-31 renal, in the experiment on CCRF-CEM leukemia and in the experiment with IGROV1 ovarian was above 100 µM in each case.
As to `CCOC(=O)c1cc(-c2ccc(OC)cc2)c([N+](=O)[O-])[nH]1`, the TGI in the experiment on HOP-92 NSCLC, in the experiment on COLO 205 colon, in the experiment on MALME-3M melanoma, in the experiment on HCC-2998 colon, with UACC-62 melanoma and in the experiment on MOLT-4 leukemia was above 10 µM each time. The TGI with UO-31 renal, in the experiment on CCRF-CEM leukemia and in the experiment with IGROV1 ovarian was above 10 µM in each case.
